Assay results: article PMC12935919 (Frontiers in Pharmacology, 2026)
No end group written: not given here.

Key:
[1] = tested on: C2C12 cells; test: Indirect immunofluorescence (MyoD, MYH3) and fusion index; type: cell-based
Protocol: Differentiated C2C12 cells cultured on coverslips were fixed at room temperature for 10 min with PBS containing 3.7% paraformaldehyde. Next, the samples were permeabilized with 0.25% Triton X-100/PBS for 10 min, blocked with 1% BSA/PBS, and incubated overnight with primary antibodies, anti-MyoD (Santa Cruz, sc-377460) and anti-MYH3 (Santa Cruz, sc-53091), followed by washing with PBS. The samples were then incubated for 1 h Alexa Fluor 488–conjugated goat anti-mouse IgG H&L (abcam, ab150113). Nuclei were stained with 4′,6-diamidino-2-phenylindole (DAPI; blue) for 5 min. The coverslips were mounted onto glass slides using an aqueous mounting solution (Biomeda, Foster City, CA, USA) and left to dry. Images were captured using a confocal laser-scanning microscope (LEICA, Wetzlar, Germany) at ×200 and ×400 magnifications for MYH3 and MyoD, respectively. The fluorescence intensity of each marker was quantified using ImageJ. For fusion index analysis, MYH3-stained images were used to quantify myotube formation by counting the number of DAPI-positive nuclei located within MYH3-positive multinucleated myotubes (defined as MYH3-positive cells containing ≥2 nuclei) and the total number of nuclei per field. Fusion index (%) was calculated as (nuclei within MYH3-positive multinucleated myotubes/total nuclei) × 100. Fusion index was calculated from multiple randomly selected fields captured under identical imaging settings and quantified in ImageJ.

[2] = tested on: SAMP8 mice; test: H&E myofiber area in muscle; type: in vivo, mouse; conditions: oral gavage once daily 45 weeks, 20 mg Myoki in 200 µL PBS, n = 5, vs SAMP8 group
Protocol: Eight week old male senescence-accelerated mouse-prone 8 (SAMP8)/Ta Slc and senescence-accelerated mouse-resistant 1 (SAMR1)/Ta Slc mice (weighing 30 ± 2 g) were purchased from Central Lab Animal Inc. (Seoul, Korea) and housed at 24 °C in cages under a 12/12 h light/dark cycle with ad libitum access to food and water. […] Mice in all groups were dosed once daily by oral gavage for 45 weeks. […] This study was approved by the Institutional Animal Care and Use Committee (approval number CG-R22-001).
Quadriceps (Quad) and gastrocnemius (Gas) muscle tissues were harvested and immersion-fixed in 10% neutral buffered formalin at 4 °C for 24 h. Following fixation, the tissues were dehydrated through a graded series of ethanol, cleared in xylene, and embedded in paraffin. Paraffin-embedded tissues were sectioned at a thickness of 5 μm. The tissue sections mounted on slides were deparaffinized, washed, and stained with hematoxylin (Dako, S3309) and eosin (Thermo Fisher Scientific, #6766007) (H&E). To assess the degree of muscle fibrosis, they were also stained using a Sirius Red Stain Kit (Abcam, ab150681) according to the manufacturer’s instructions. […] For each animal, three images were randomly selected from the stained sections, and the total stained area per image, rather than individual muscle fibers, was quantified using ImageJ software.

[3] = tested on: patients with muscle atrophy (ICD-10-CM code: M62.5); test: Clinical trial: safety, treatment emergent adverse events; type: in vivo, human; conditions: 12 weeks, 200 mg/day, N=40
Excerpt: All participants provided written informed consent prior to any study procedures. Key eligibility criteria included adults aged ≥18 years with low muscle mass by DEXA (men: <7.0 kg/m^2; women: <5.4 kg/m^2) and either low handgrip strength (men: <28 kg; women: <18 kg) or low physical performance (6-m walk speed <1.0 m/s). Major exclusion criteria included uncontrolled systemic disease, musculoskeletal or neurological disorders, recent anabolic steroid use, and concomitant medications known to affect protein metabolism; full inclusion and exclusion criteria are provided in Supplementary Table S1. Of 89 patients screened, seven were screen failures and two withdrew prior to randomization; 80 eligible participants were enrolled and proceeded to the baseline/randomization visit (mean age 38.83 ± 9.91 years; range 23–69).
The study was double-blind; participants, investigators, and study staff were unaware of treatment allocation throughout the trial.
Efficacy endpoints were evaluated as changes from baseline to Week 12; efficacy analyses were conducted in the per-protocol population, and safety analyses included all randomized participants who received at least one dose of study product (Supplementary Figure S2). Of 80 randomized participants, 75 completed the study.

[4] = tested on: C2C12 cells; test: Western blot of differentiation markers and myofibrillar proteins; type: cell-based
Protocol: To induce C2C12 myotube differentiation, myoblasts were seeded in 6-well plates at 5 × 10^5 cells per well. Once reaching 90% confluency, they were cultured in DMEM supplemented with 2% horse serum (Thermo Fisher Scientific) and 1% penicillin-streptomycin. […] Differentiation was observed using an optical microscope (LEICA, 100×). Myotube morphology (length and diameter) was quantified in ImageJ (NIH) using the same images: myotube length was measured by tracing the long axis of each myotube (end-to-end), and myotube diameter was measured as the short-axis width at three positions along each myotube; the mean of the three width values was recorded as the diameter. For each experimental group, three randomly captured images (fields) were analyzed, and at least 15–20 myotubes per image were quantified under identical imaging settings.
Treated C2C12 cells (5 × 10^5 cells/well) were harvested in lysis buffer (Sigma-Aldrich, 2910) and centrifuged at 12,000 g for 10 min; proteins in the supernatant were collected. Protein concentrations were measured using the BCA Protein Assay Kit (Thermo Fisher Scientific). Each 20 μg sample was separated using 10% SDS–PAGE and transferred onto a polyvinylidene fluoride membrane (Millipore, Burlington, MA, USA). Non-specific binding was blocked with 5% non-fat dry milk for 1 h. The membranes were incubated overnight with primary antibodies: Anti-Myf5 (Abcam, ab125078), Anti-Myf6 (Abcam, ab182842), Anti-MyoD (Santa Cruz, sc-377460), Anti-MyoG (Santa Cruz, sc-52903), Anti-α-actinin (Santa Cruz, sc-17829), Anti-MYH3 (Santa Cruz, sc-53091), Anti-p-mTOR (Ser2448) (CST, #5536), Anti-p-Akt (Ser473) (CST, #9271), Anti-p-p70 S6 Kinase (Thr389) (CST, #9205), Anti-myostatin (Abcam, ab124721), Anti-atrogin-1/MAFbx (Santa Cruz, sc-166806), and Anti-MuRF1 (Santa Cruz, sc-398608). Membranes were then incubated for 1 h with HRP-conjugated secondary antibodies. Blot images were captured with the ECL system (Amersham, UK) and quantified using ImageJ.

[5] = tested on: Fc gamma-tagged myostatin/GDF-8; test: ELISA-based receptor binding assay; set-up: species or system human
Protocol: Plates were washed with PBST and blocked with 3% (w/v) BSA for 2 h at room temperature. They were then incubated for 2 h with Fc gamma-tagged myostatin/GDF-8 (Sino Biological, #50441-M01H) diluted in PBST. After another PBST wash, plates were treated with HRP-linked Anti-IgG Fc gamma (CST, #32935S, 1:1,000) for 2 h. Finally, color was developed with TMB (Sigma, #T0440), the reaction stopped with 1 M H2SO4, and absorbance was measured at 450 nm.

[6] = Day 3, 100 μM, fluorescence intensity, mean ± SD

## EAEYEHL-OH [Myoki]
[1]; [6]
  increase in MYH3 expression compared to the control: 191% ± 10.66%
  increase in MyoD expression compared to the control: 190% ± 46.28%
[1]; Day 6
  increase in MYH3 fluorescence staining compared to the control: 153%
[2]
  myofiber area, gastrocnemius: significantly increased
  myofiber area, quadriceps: significantly increased
[3]
  TEAEs related to the study product: No TEAEs were assessed as related to the study product
  serious TEAEs: no serious TEAEs were reported
  severity and outcome of TEAEs: all TEAEs were mild in severity and resolved
[4]; Day 3, Western blot, vs DM
  MYH3 protein expression: significant increase
  MyoD protein expression: significant increase
  MyoG protein expression: significant increase
  alpha-actinin protein expression: significant increase
[4]; Day 6, 100 μM, Western blot
  increase in MYH3 expression: 307%
  increase in alpha-actinin expression: 818%
[5]; Myoki coated at 125, 250, 500, and 1,000 μM
  binding to myostatin: directly and concentration-dependently binds to myostatin
[5]; Myoki-coated plates, ≥62.5 μM, absorbance 450 nm
  myostatin binding compared to the control: more than 150%
